Source: patent US5856333A, “Substituted camptothecin derivatives and process for their preparation” (Pharmacia & Upjohn S.p.A., priority 1995, dated 1999)
In brackets after ≈: the same amount, converted by molar mass.

Assays:
[1] = tested on: L1210 murine leukemia cells; assay: evaluation of cytotoxic activity, method (a); format: cell-based; details: Mus musculus, 48 h at 37° C., 5% CO2, dose causing 50% inhibition of cell growth relative to untreated controls, 0.5% DMSO
Experimental: As an example, the activity of (E)-9-(2-methoxycarbonyl-ethenyl) camptothecin (internal code FCE 28681) and 9-(2-methoxycarbonyl-ethyl) camptothecin (internal code FCE 29559) were tested according to the following method (a).
The compounds were dissolved in dimethylsulfoxide (DMSO) at a final concentration of 0.5%.
Method (a): evaluation of cytotoxic activity
L1210 murine leukemia cells were grown in vitro as a floated cells in RPMI 1640 medium supplemented with 10% fetal calf serum, 1% L-glutamine 200 mM, 1% of B-mercaptoethanol 1 mM, 100 UI/ml penicillin and 100 μg streptomycin. For assaying the cytotoxic activity, exponentially growing cells were seeded at the concentration of 5×10^4 cells/ml and exposed to graded doses of the compounds under evaluation for 48 h at 37° C. in an humidified atmosphere of 5% CO2. The number of surviving cells was determined with a Coulter Counter; results are expressed as IC50 (dose causing 50% inhibition of cell growth in treated cultures relative to untreated controls after 48 h treatment) in this assay, (E)-9-(2-methoxycarbonyl-ethenyl) camptothecin (internal code FCE 28681) and 9-(2-methoxycarbonyl-ethyl) camptothecin (internal code FCE 29559) were tested and the obtained results are reported on Table 1 below.

human albumin = details: biologically relevant levels of human albumin; cited from earlier work
[2] = human plasma, 2 hours after drug addition; cited from earlier work
cancer cells = details: both in vitro and in vivo; cited from earlier work
Topoisomerase I = details: cited from earlier work

| Structure (SMILES) | IC50 [1] [ng/mL] | half-life of the biologically active form (human albumin) | percentage of drug converted to camptothecin carboxylate [2] | anticancer activity of the lactone versus the carboxylate form (cancer cells) | antitumor activity by inhibition of Topoisomerase I (Topoisomerase I) |
| --- | --- | --- | --- | --- | --- |
| CC[C@@]1(O)C(=O)OCc2c1cc1n(c2=O)Cc2cc3c(/C=C/C(=O)OC)cccc3nc2-1 [FCE 28681, (E)-9-(2-methoxycarbonyl-ethenyl)camptothecin] | 3.3 ± 1.8 (≈ 7.63 nM) | – | – | – | – |
| CC[C@@]1(O)C(=O)OCc2c1cc1n(c2=O)Cc2cc3c(CCC(=O)OC)cccc3nc2-1 [FCE 29559, 9-(2-methoxycarbonyl-ethyl)camptothecin] | 2.7 ± 0.5 (≈ 6.21 nM) | – | – | – | – |
| CC[C@@]1(O)C(=O)OCc2c1cc1n(c2=O)Cc2cc3ccccc3nc2-1 [camptothecin] | – | about 12 min. | greater than 99% | significantly greater for the lactone versus the carboxylate form | potent antitumor activity |
